The results in this text go back to ChEMBL document CHEMBL1126547, “Cardioselective anti-ischemic ATP-sensitive potassium channel openers” (J Med Chem, 1993).

Active and inactive are the calls of the source. The rule behind the calls is not given here.

A short description of data set [1]: Ratio between EC25 and IC50 values was determined.
For data set [2], the species on record is Rattus norvegicus. In words: Anti-ischemic potency determined as concentration required for increase in time to contracture in globally ischemic rat hearts. Format: functional.
The species named for data set [3] is Rattus norvegicus. In words: Vasorelaxant potency determined by inhibition of methoxamine-contracted rat aorta. Type of data set: functional.
The species named for data set [4] is Rattus norvegicus. Nature of the data set: Anti-ischemic potency determined as concentration required for increase in time to contracture in globally ischemic rat hearts 10 uM; No significant activity. Type of data set: functional.
The nature of data set [5]: Oral bioavailability in rat. Format: ADME, organism-based. The settings on record: in vivo.
The nature of data set [6]: Plasma half-life was determined in rats. Type of data set: ADME, organism-based. The settings on record: rat, read-out: Elimination half-life (converted).

In the case of `CC1(C)Oc2ccc([N+](=O)[O-])cc2[C@@H](/N=C(\NC#N)Nc2ccccc2)[C@@H]1O`, the Ratio in data set [1] was determined as 3.6. This compound had an EC25 in the data set filed under Rattus norvegicus [2] of 7.2 µM. The same compound displayed an IC50 in the data set filed under Rattus norvegicus [3] (Rattus norvegicus, Aorta) of 2 µM.

Compound `C#Cc1ccc2c(c1)[C@@H](/N=C(\NC#N)Nc1ccccc1)[C@H](O)C(C)(C)O2` registered an EC25 in the data set listed under Rattus norvegicus [2] greater than 30 µM. This compound also registered an IC50 in the data set listed under Rattus norvegicus [3] (Rattus norvegicus, Aorta) of 5.4 µM.

Take `CC1(C)Oc2ccccc2[C@@H](/N=C(\NC#N)Nc2ccccc2)[C@@H]1O`: the EC25 result in the data set listed under Rattus norvegicus [4] is “inactive”. This compound showed an IC50 in the data set listed under Rattus norvegicus [3] (Rattus norvegicus, Aorta) of 72.7 µM.

On to `CC1(C)Oc2ccc(C#N)cc2[C@@H](/N=C(\NC#N)Nc2ccccc2)[C@@H]1O` (stereo in doubt; 12) [listing 1 of 2 here], for which the Ratio in data set [1] worked out at 4.7.

Regarding `CC1(C)Oc2ccc(C#N)cc2[C@@H](/N=C(\S)Nc2ccccc2)[C@@H]1O`, the Ratio in data set [1] worked out at 4.5. In addition, the EC25 in the data set listed under Rattus norvegicus [2] turned out to be 7.7 µM. For the same compound, half-maximal inhibition in the data set filed under Rattus norvegicus [3] (Rattus norvegicus, Aorta) (IC50) required 1.7 µM.

Take `CC1(C)Oc2ccc(C#N)cc2[C@@H](/N=C(\NC#N)Nc2ccccc2)[C@@H]1O` (stereo in doubt; 5) [listing 1 of 2 here]: the EC25 in the data set filed under Rattus norvegicus [2] amounted to 11 µM.

With `CC1(C)Oc2ccc(C#N)cc2[C@@H](/N=C(\NC#N)Nc2ccc(Cl)cc2)[C@@H]1O`, the Ratio in data set [1] worked out at 1.4. The EC25 in the data set listed under Rattus norvegicus [2] is 2.5 µM. Also, the IC50 in the data set filed under Rattus norvegicus [3] (Rattus norvegicus, Aorta) stood at 1.8 µM.

Take `CC1(C)Oc2ccc(C#N)cc2[C@@H](NC(=NC#N)Nc2ccc(Cl)cc2)[C@@H]1O`: the bioavailability in data set [5] turned out to be 61%. In data set [6], the half-life was 7 h.

`CC1(C)Oc2ccc(C#N)cc2[C@@H](/N=C(\NC#N)Nc2ccccc2)[C@@H]1O` (stereo in doubt; 12) [listing 2 of 2 here] had a bioavailability in data set [5] of 70%. Moreover, the half-life in data set [6] was 1.8 h. This compound registered an EC25 in the data set filed under Rattus norvegicus [2] of 6.1 µM. In the data set filed under Rattus norvegicus [3], the IC50 was 1.3 µM.

Turning to `CC1(C)Oc2ccc(C#N)cc2[C@@H](/N=C(\NC#N)Nc2ccc(F)cc2)[C@@H]1O`, in data set [5], the bioavailability worked out at 64%. Further, in data set [6], the half-life is 1.7 h. In addition, the Ratio in data set [1] worked out at 2.5. In the data set listed under Rattus norvegicus [2], this compound had an EC25 of 3.5 µM. Also, in the data set filed under Rattus norvegicus [3] (Rattus norvegicus, Aorta), the IC50 came to 1.4 µM.

`CC1(C)Oc2ccc(C#N)cc2C(N2CCCC2=O)C1O` (stereo unspecified) [CROMAKALIM]: the Ratio in data set [1] is 278. In the data set filed under Rattus norvegicus [2], this compound showed an EC25 of 8.9 µM. In the data set listed under Rattus norvegicus [3] (Rattus norvegicus, Aorta), the IC50 was found to be 0.032 µM.

As for `CC1(C)Oc2ccc(C#N)cc2[C@@H](/N=C(\NC#N)Nc2ccccc2)[C@@H]1O` (stereo in doubt; 13), the EC25 in the data set listed under Rattus norvegicus [2] is greater than 30 µM. This compound showed an IC50 in the data set filed under Rattus norvegicus [3] of 4.2 µM.

On to `CC1(C)Oc2ccc(C#N)cc2[C@@H](/N=C(\NC#N)Nc2ccc(C(F)(F)F)cc2)[C@@H]1O`, for which, in data set [1], the Ratio came out at 1.7. Further, the EC25 in the data set listed under Rattus norvegicus [2] is 13.4 µM. Moreover, in the data set listed under Rattus norvegicus [3] (Rattus norvegicus, Aorta), the IC50 was determined as 8.1 µM.

For `CC1(C)Oc2ccc(C#N)cc2[C@@H](/N=C(\NC#N)Nc2ccccc2)[C@@H]1O` (stereo in doubt; 5) [listing 2 of 2 here], in data set [1], the Ratio worked out at 7.9.

`CC1(C)Oc2ccc(C#N)cc2[C@@H](NC(=O)Nc2ccccc2)[C@@H]1O`: the EC25 in the data set listed under Rattus norvegicus [2] was determined as 5.1 µM.

`CCC(C)(C)/N=C(\NC#N)N[C@@H]1c2cc(C#N)ccc2OC(C)(C)[C@H]1O`: the Ratio in data set [1] was 0.7. In the data set filed under Rattus norvegicus [2], this compound showed a concentration for an effect of 25% (EC25) of 20.1 µM.

Take `CC1(C)Oc2ccc(C#N)cc2[C@@H](/N=C(\NC#N)Nc2ccc(O)cc2)[C@@H]1O`: the Ratio in data set [1] amounted to 15.2. Besides, the EC25 in the data set listed under Rattus norvegicus [2] worked out at 33.4 µM. Also, the IC50 in the data set filed under Rattus norvegicus [3] (Rattus norvegicus, Aorta) is 2.2 µM.
